Reference: BindingDB's records for doi:10.1111/j.1747-0285.2012.01328.x (Technical University of LÓDz, 2012)

Molecular target: HIV-1 protease (Human immunodeficiency virus, UniProt O90785)
Experiment: Fluorometric Assay
Text: The Ki value were determine by a fluorometric assay with the fluorogenic and chromogenic substrate.

Sequence of HIV-1 protease (O90785 whole entry): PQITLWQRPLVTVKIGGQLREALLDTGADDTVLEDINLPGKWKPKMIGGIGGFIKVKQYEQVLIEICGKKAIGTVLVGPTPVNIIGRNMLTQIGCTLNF

SMILES	IC50 [nM]	Ki [nM]
Cc1c(O)cccc1C(=O)N[C@@H](Cc1ccccc1)[C@@H](O)C[C@H](Cc1ccccc1)NC(=O)c1ccccc1 [3-Hexanol derivative, 1]	1	4.6
Cc1c(O)cccc1C(=O)N[C@@H](Cc1ccccc1)[C@@H](O)C[C@H](Cc1ccccc1)NC(=O)OC1CCOC1 (stereo partly drawn) [3-Hexanol derivative, 3]	0.63	0.32
Cc1ccccc1C(=O)N[C@@H](Cc1ccccc1)C[C@H](O)[C@H](Cc1ccccc1)NC(=O)c1ccccc1C [3-Hexanol derivative, 2]	3	4.8
CC(C)[C@@H](C(=O)N[C@@H](Cc1ccccc1)[C@@H](O)C[C@H](Cc1ccccc1)NC(=O)OC(C)(C)C)N(C)C(=O)OCc1ccccn1 [3-Hexanol derivative, 4]	0.17	0.021
